For orientation: IC50 means the concentration at which inhibition is half-maximal.

The structures appear in SMILES notation.

These results are taken from patent US9839642B2, “Beta-tetrazolyl-propionic acids as metallo-beta-lactamase inhibitors” (priority 2014, dated 2017).

The test system of test [1] is Serratia marcescens expressing IMP-1 (CL5741). Put plainly: Antibiotic potentiation activity: synergistic concentration (MITC95) with imipenem, growth by OD600. Format: cell-based. The conditions noted are these: S. marcescens CL5741 (IMP-1), 95% inhibition of growth. The method, boiled down:
(§1)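 Colonies from overnight agar plates (35 °C) were suspended in saline and diluted 1:100 into 1.1× CAMHB. Inhibitor (final 200 μM to 0.195 μM) was combined with imipenem at 1 or 4 μg/ml, incubated 22–24 h at 35 °C, and absorbance read; MITC95 is the lowest inhibitor concentration giving 95% growth inhibition.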

Test [2] relates to Klebsiella pneumoniae expressing VIM-1 (IHMA599644). The description is as above. Format: cell-based. To be noted: K. pneumoniae IHMA599644 (VIM-1), 95% inhibition of growth. An outline of the steps: as §1
The test system of test [3] is Escherichia coli expressing NDM-1 (CLB30016). Described as above. To be noted: E. coli CLB30016 (NDM-1), 95% inhibition of growth. Format: cell-based. An outline of the steps: as §1
Test [4] concerns the target IMP-1 (Serratia marcescens, UniProt P52699). Put plainly: Enzyme activity: determination of IC50, fluorescence assay with CCF2-FA substrate. It counts as biochemical. To be noted: IMP-1 enzyme 2 pM, CCF2-FA 1.25 μM, 2 hours at 25° C.; read-out: IMP1 IC50. The method, boiled down: (§2)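 Final enzyme levels differed by target: 1 pM NDM-1, 2 pM IMP-1, 30 pM VIM-1. Each was incubated 2 hours at 25° C with test compound and 1.25 μM CCF2-FA, and 460 nm fluorescence (405 nm excitation) was fitted by 4-parameter curve to obtain IC50.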

In test [5] the target is NDM-1 (Klebsiella pneumoniae, UniProt C7C422). The test is described as above. Format: biochemical. To be noted: NDM-1 enzyme 1 pM, CCF2-FA 1.25 μM, 2 hours at 25° C.; read-out: NDM1 IC50. An outline of the steps:
as §2

The target in test [6] is VIM-1 (Pseudomonas aeruginosa, UniProt A0A0F7KYQ8). The test is described as above. To be noted: VIM-1 enzyme 30 pM, CCF2-FA 1.25 μM, 2 hours at 25° C.; read-out: VIM1 IC50. It counts as biochemical. The method, boiled down: as §2

Sequence of NDM-1 (C7C422 29-270, looked up, species assumed): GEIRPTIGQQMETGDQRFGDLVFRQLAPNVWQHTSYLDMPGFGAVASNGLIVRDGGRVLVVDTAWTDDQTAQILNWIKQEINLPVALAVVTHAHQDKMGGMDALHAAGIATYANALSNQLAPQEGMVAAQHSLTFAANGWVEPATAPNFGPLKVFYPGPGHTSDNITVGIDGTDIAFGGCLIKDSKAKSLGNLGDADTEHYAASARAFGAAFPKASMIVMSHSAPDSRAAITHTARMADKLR
Sequence of IMP-1 (P52699 19-246, looked up, species assumed): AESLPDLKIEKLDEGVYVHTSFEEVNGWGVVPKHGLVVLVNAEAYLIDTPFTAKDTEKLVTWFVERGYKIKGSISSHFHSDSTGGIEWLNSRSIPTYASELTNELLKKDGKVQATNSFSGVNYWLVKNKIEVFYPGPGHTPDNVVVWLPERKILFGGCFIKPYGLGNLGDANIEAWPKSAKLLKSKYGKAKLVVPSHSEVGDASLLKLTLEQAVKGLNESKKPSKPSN

Take `CCC[C@H](C(=O)O)[C@H](Cc1cnc(N(C)C)nc1)c1nnn[nH]1` [Example 290, (S)-2-((S)-2-(2-(dimethylamino)pyrimidin-5-yl)-1-(1H-tetrazol-5-yl)ethyl)pentanoic acid]: in test [1], the “IMP1 SM5741 MITC95” value amounted to 150 µM. In test [2], the “VIM1 KP599644 MITC95” value worked out at 38 µM. Moreover, in test [3], the “NDM1 EC30016 MITC95” value was 18.8 µM. In addition, the IC50 worked out at 14 µM in test [4], 0.11 µM in test [5] and 0.0021 µM in test [6].

Take `CCC[C@H](C(=O)[O-])[C@H](Cc1ccc(C2CC[N+](C)(C)CC2)nc1)c1nnn[nH]1` [Example 291, (S)-2-((S)-2-(6-(1,1-dimethylpiperidin-1-ium-4-yl)pyridin-3-yl)-1-(1H-tetrazol-5-yl)ethyl)pentanoate]: the “IMP1 SM5741 MITC95” value in test [1] is 50 µM. Also, the “VIM1 KP599644 MITC95” value in test [2] was found to be 38 µM. The “NDM1 EC30016 MITC95” value in test [3] is 3.1 µM. For the same molecule, the IC50 in test [4] stood at 6.5 µM; in test [5], 0.65 µM; in test [6], 0.12 µM.

For `CCC[C@H](C(=O)[O-])[C@H](Cc1ccc(C2CCC[N+](C)(C)C2)nc1)c1nnn[nH]1` (stereo partly drawn) [Example 292, (2S)-2-((1S)-2-(6-(1,1-dimethylpiperidin-1-ium-3-yl)pyridin-3-yl)-1-(1H-tetrazol-5-yl)ethyl)pentanoate], the “IMP1 SM5741 MITC95” value in test [1] was 150 µM. Besides, the “VIM1 KP599644 MITC95” value in test [2] stood at 50 µM. Moreover, the “NDM1 EC30016 MITC95” value in test [3] is 38 µM. Moreover, the half-inhibitory concentration (IC50) came to 16 µM in test [4], 2.6 µM in test [5] and 0.078 µM in test [6].

As for `CCC[C@H](C(=O)[O-])[C@H](Cc1ccc(C2=CCC[N+](C)(C)C2)nc1)c1nnn[nH]1` [Example 293, (S)-2-((S)-2-(1′,1′-dimethyl-1′,2′,5′,6′-tetrahydro-[2,3′-bipyridin]-1′-ium-5-yl)-1-(1H-tetrazol-5-yl)ethyl)pentanoate], the “IMP1 SM5741 MITC95” value in test [1] is 100 µM. Further, the “VIM1 KP599644 MITC95” value in test [2] was 50 µM. In addition, in test [3], the “NDM1 EC30016 MITC95” value was found to be 25 µM. Further, the figures for the IC50 in test [4], in test [5] and in test [6] were 16 µM, 2.4 µM and 0.022 µM, respectively.

Take `CCC[C@H](C(=O)[O-])[C@H](Cc1ccc(C2CC[N+](C)(C)CC2)cc1)c1nnn[nH]1` [Example 294, (S)-2-((S)-2-(4-(1,1-dimethylpiperidin-1-ium-4-yl)phenyl)-1-(1H-tetrazol-5-yl)ethyl)pentanoate]: the “IMP1 SM5741 MITC95” value in test [1] was determined as 9.4 µM. Moreover, the “VIM1 KP599644 MITC95” value in test [2] was 25 µM. Also, the “NDM1 EC30016 MITC95” value in test [3] amounted to 12.5 µM. For the same molecule, the IC50 is 0.69 µM in test [4], 0.17 µM in test [5] and 0.076 µM in test [6].

On to `CCC[C@H](C(=O)[O-])[C@H](Cc1ccc(C2=CC[N+](C)(C)CC2)cc1)c1nnn[nH]1` [Example 295, (S)-2-((S)-2-(4-(1,1-dimethyl-1,2,3,6-tetrahydropyridin-1-ium-4-yl)phenyl)-1-(1H-tetrazol-5-yl)ethyl)pentanoate], for which the “IMP1 SM5741 MITC95” value in test [1] stood at 12.5 µM. Further, the “VIM1 KP599644 MITC95” value in test [2] amounted to 25 µM. The “NDM1 EC30016 MITC95” value in test [3] is 12.5 µM. Further, the IC50 was found to be 1.1 µM in test [4], 0.44 µM in test [5] and 1.6 µM in test [6].

Take `CCC[C@H](C(=O)O)[C@H](Cc1ccc(C2CCN(C(=N)N)CC2)cc1)c1nnn[nH]1` [Example 296, (S)-2-((S)-2-(4-(1-carbamimidoylpiperidin-4-yl)phenyl)-1-(1H-tetrazol-5-yl)ethyl)pentanoic acid]: in test [1], the “IMP1 SM5741 MITC95” value is 6.2 µM. Further, the “VIM1 KP599644 MITC95” value in test [2] stood at 12.5 µM. In test [3], the “NDM1 EC30016 MITC95” value is 4.7 µM. For the same molecule, the IC50 in test [4] amounted to 0.18 µM; in test [5], 0.032 µM; in test [6], 0.021 µM.

For `CCC[C@H](C(=O)O)[C@H](Cc1ccc(C2CCN(C=N)CC2)cc1)c1nnn[nH]1` [Example 297, (S)-2-((S)-2-(4-(1-(iminomethyl)piperidin-4-yl)phenyl)-1-(1H-tetrazol-5-yl)ethyl)pentanoic acid], the “IMP1 SM5741 MITC95” value in test [1] was found to be 6.2 µM. For the same molecule, the “VIM1 KP599644 MITC95” value in test [2] was determined as 18.8 µM. The “NDM1 EC30016 MITC95” value in test [3] was found to be 4.7 µM. The IC50 was found to be 0.2 µM in test [4], 0.026 µM in test [5] and 0.025 µM in test [6].

Take `CCC[C@H](C(=O)O)[C@H](Cc1ccc(C2CCN(C(=N)N)CC2)nc1)c1nnn[nH]1` [Example 298, (S)-2-((S)-2-(6-(1-carbamimidoylpiperidin-4-yl)pyridin-3-yl)-1-(1H-tetrazol-5-yl)ethyl)pentanoic acid]: the “IMP1 SM5741 MITC95” value in test [1] is 25 µM. Further, the “VIM1 KP599644 MITC95” value in test [2] stood at 12.5 µM. For the same molecule, in test [3], the “NDM1 EC30016 MITC95” value is 1.6 µM. The IC50 was 2.7 µM in test [4], 0.11 µM in test [5] and 0.01 µM in test [6].

Regarding `CCC[C@H](C(=O)O)[C@H](Cc1ccc(C2CCN(C=N)CC2)nc1)c1nnn[nH]1` [Example 299, (S)-2-((S)-2-(6-(1-(iminomethyl)piperidin-4-yl)pyridin-3-yl)-1-(1H-tetrazol-5-yl)ethyl)pentanoic acid], in test [1], the “IMP1 SM5741 MITC95” value is 50 µM. The “VIM1 KP599644 MITC95” value in test [2] is 25 µM. In test [3], the “NDM1 EC30016 MITC95” value was 1.6 µM. The IC50 in test [4] was found to be 4.4 µM; in test [5], 0.22 µM; in test [6], 0.022 µM.

With `CCC[C@H](C(=O)O)[C@H](Cc1ccc(C2CCN(C)CC2)cc1)c1nn[nH]n1` [Example 300, (2S)-2-[(1S)-2-[4-(1-methylpiperidin-4-yl)phenyl]-1-(2H-tetrazol-5-yl)ethyl]pentanoic acid], the “IMP1 SM5741 MITC95” value in test [1] was 25 µM. Besides, in test [2], the “VIM1 KP599644 MITC95” value stood at 100 µM. Besides, the “NDM1 EC30016 MITC95” value in test [3] was determined as 50 µM. For the same molecule, the IC50 was determined as 2.1 µM in test [4], 0.55 µM in test [5] and 0.14 µM in test [6].

For `CCC[C@H](C(=O)O)[C@H](Cc1ccc(-c2ccc(CC3CCNCC3)cc2)cc1)c1nn[nH]n1` [Example 301, (2S)-2-[(1S)-2-[4′-(piperidin-4-ylmethyl)biphenyl-4-yl]-1-(2H-tetrazol-5-yl)ethyl]pentanoic acid], the “IMP1 SM5741 MITC95” value in test [1] is 2.3 µM. For the same molecule, in test [2], the “VIM1 KP599644 MITC95” value is 100 µM. Also, the “NDM1 EC30016 MITC95” value in test [3] came to 12.5 µM. Besides, the results for the IC50 in test [4], in test [5] and in test [6] were 0.068 µM, 0.043 µM and 0.031 µM, respectively.

Turning to `CCC[C@H](C(=O)O)[C@H](Cc1ccc(C2=CCCNC2)cc1)c1nn[nH]n1` [Example 302, (2S)-2-[(1S)-2-[4-(1,2,5,6-tetrahydropyridin-3-yl)phenyl]-1-(2H-tetrazol-5-yl)ethyl]pentanoic acid], the “IMP1 SM5741 MITC95” value in test [1] was found to be 50 µM. For the same molecule, the “VIM1 KP599644 MITC95” value in test [2] was found to be 50 µM. The “NDM1 EC30016 MITC95” value in test [3] came to 38 µM. Besides, the IC50 was determined as 3.1 µM in test [4], 0.98 µM in test [5] and 0.018 µM in test [6].

In the case of `CC(C)C[C@H](C(=O)O)[C@H](Cc1ccc(N2CCCC2c2ccccc2)nc1)c1nnn[nH]1` (stereo partly drawn) [Example 303, (2S)-4-methyl-2-[(1S)-2-[6-(2-phenylpyrrolidin-1-yl)pyridin-3-yl]-1-(1H-tetrazol-5-yl)ethyl]pentanoic acid], in test [1], the “IMP1 SM5741 MITC95” value is 4.7 µM. Further, the “VIM1 KP599644 MITC95” value in test [2] worked out at 200 µM. Besides, the “NDM1 EC30016 MITC95” value in test [3] came out at 18.8 µM. In addition, the figures for the IC50 in test [4], in test [5] and in test [6] were 0.096 µM, 0.014 µM and 0.0039 µM, respectively.

As for `CC(C)C[C@H](C(=O)O)[C@H](Cc1ccc(N2CCCC2)nc1)c1nnn[nH]1` [Example 304, (2S)-4-methyl-2-[(1S)-2-(6-pyrrolidin-1-ylpyridin-3-yl)-1-(1H-tetrazol-5-yl)ethyl]pentanoic acid], the “IMP1 SM5741 MITC95” value in test [1] was determined as 38 µM. The “VIM1 KP599644 MITC95” value in test [2] turned out to be 18.8 µM. For the same molecule, the “NDM1 EC30016 MITC95” value in test [3] came out at 4.7 µM. For the same molecule, the results for the IC50 in test [4], in test [5] and in test [6] were 1.3 µM, 0.17 µM and 0.0078 µM, respectively.

For `CNC(=O)C1CCN(c2ccc(C[C@H](c3nnn[nH]3)[C@H](CC(C)C)C(=O)O)cn2)C1` (stereo partly drawn) [Example 305, (2S)-4-methyl-2-[(1S)-2-{6-[3-(methylcarbamoyl)pyrrolidin-1-yl]pyridin-3-yl}-1-(1H-tetrazol-5-yl)ethyl]pentanoic acid], in test [1], the “IMP1 SM5741 MITC95” value was 6.2 µM. In addition, the “VIM1 KP599644 MITC95” value in test [2] was 25 µM. In addition, the “NDM1 EC30016 MITC95” value in test [3] came to 2.3 µM. The results for the IC50 in test [4], in test [5] and in test [6] were 0.25 µM, 0.12 µM and 0.012 µM, respectively.
